The numbers were not newly measured in PMC8761874 (European Journal of Nuclear Medicine and Molecular Imaging, 2022), which cites them from elsewhere.

Read-outs that look alike come from different tables or passages of the source.

In data set [1] the test system is PD-L1-positive non-small cell lung cancer. The note with it: tiragolumab plus atezolizumab, ref [15].
For data set [2], the system named is patients with advanced solid tumors. To be noted: ref [13].

With “tiragolumab: anti-TIGIT mAb, given with atezolizumab in the CITYSCAPE trial”, the “objective response rate (ORR)” value in data set [1] (subgroup with high PD-L1 expression) is recorded as 66%; in data set [1], 37%.

B1: MK-7684: anti-TIGIT mAb in a phase I trial (antibody, chains of the INN, looked up, V domains shown)
VH: EVQLVQSGAEVKKPGSSVKVSCKASGYTFSSYVMHWVRQAPGQGLEWIGYIDPYNDGAKYAQKFQGRVTLTSDKSTSTAYMELSSLRSEDTAVYYCARGGPYGWYFDVWGQGTTVTVSS
VL: DIQMTQSPSSLSASVGDRVTITCRASEHIYSYLSWYQQKPGKVPKLLIYNAKTLAEGVPSRFSGSGSGTDFTLTISSLQPEDVATYYCQHHFGSPLTFGQGTRLEIK
With B1, the partial response rate in data set [2] (in combination with pembrolizumab, n = 8/43) was 19%; in data set [2] (monotherapy, n = 1/34), 3%.
